The subject of one data set is B. cereus. It is filed as cell-based, Bacillus cereus. As to the method: (§1) Antimicrobial Activity Assay:
(§2) The following microbroth dilution protocol was adapted to determine the minimum inhibitory concentration (MIC) of each peptide. First, Mueller-Hinton broth (MHB) was passed through an anion exchange column to remove polyanionic species and generate refined MHB. […] Briefly, bacterial cells was grown overnight in refined MHB at 37° C. and then diluted and allowed to grow again for several hours. Serial dilutions of peptide stocks in water (10 μl) were prepared using clear round-bottom polypropylene 96-well plates. Then 90 μl of bacteria in refined MHB was added to give a final inoculum of 5×10^5 CFU/ml. The plates were then covered with porous tape to reduce evaporation, and incubated for 20-24 hours at 37° C. The MIC is the minimum peptide concentration at which no visible growth was observed.

Another data set relates to human red blood cells. It is filed as cell-based. The following applies: for % Hemolysis at 25 μg/ml: red cells of human, 1 h. The protocol:
FIG. 5 is a series of line graphs depicting the hemolytic activity of magainin II and stapled analogues. Peptides were incubated with 1% (v/v) human red blood cells in phosphate-buffered solution for 1 hour at 37° C. and then the supernatant was isolated and the amount of hemoglobin released was measured at 540 nm. % hemolysis was calculated relative to an untreated control.
Hemolytic Activity Assay:
For the determination of hemolytic activity, human blood samples were centrifuged to isolate red blood cells (RBCs), which are then washed and suspended in phosphate-buffered saline to yield a 1% (v/v) suspension. The suspension was then added to serial dilutions of peptide stocks in water in clear round-bottom polypropylene 96-well plates and the plates were incubated for 1 hour at 37° C. After incubation, the plates were centrifuged and the supernatant was isolated to determine the amount of hemoglobin released using a spectrophotometer (570 nm), according to the equation: % Hemolysis=(Treated Absorbance−Untreated Control Absorbance)/(1% Triton-X100 Treated Absorbance−Untreated Control Absorbance). The minimum hemolytic concentration (MHC) is the peptide concentration at which there is less than 1% hemoglobin release.

The next data set deals with S. aureus. The format is cell-based, Staphylococcus aureus. As to the method:
as §1, §2

In the next data set the test system is E. coli. It is filed as cell-based, Escherichia coli. The protocol: as §1, §2
In the next data set the test system is P. aeruginosa. The format is cell-based, Pseudomonas aeruginosa. As to the method:
as §1, §2

Bridge positions count the residues as written; N and C are the ends. Square brackets hold non-standard residues; d marks the D form. Peptide text beside a SMILES is read from it. Hyp = O=C(O)[C@@H]1C[C@@H](O)CN1; R8 = C=CCCCCCC[C@@](C)(N)C(=O)O; S5 = C=CCCC[C@](C)(N)C(=O)O; Nle = CCCC[C@H](N)C(=O)O

As for `CCCC[C@H](NC(=O)[C@]1(C)CCCC=CCCC[C@](C)(NC(=O)[C@H](C)NC(=O)[C@H](CCCCN)NC(=O)CNC(=O)[C@H](Cc2ccccc2)NC(=O)[C@H](CCCCN)NC(=O)[C@H](CCCCN)NC(=O)[C@H](C)NC(=O)[C@H](CO)NC(=O)[C@H](Cc2c[nH]cn2)NC(=O)[C@H](CC(C)C)NC(=O)[C@H](Cc2ccccc2)NC(=O)[C@H](CCCCN)NC(=O)CNC(=O)[C@@H](NC(=O)CN)[C@@H](C)CC)C(=O)N[C@@H](C(C)C)C(=O)N[C@@H](CCCCN)C(=O)N[C@@H](CCC(=O)O)C(=O)N1)C(=O)N[C@@H](CC(N)=O)C(=O)N[C@@H](CO)C(N)=O` [Mag(i + 4)15(G18K), GIGKFLHSAKKFGKAXVKEXBNS] (H-GIGKFLHSAKKFGKA[S5]VKE[S5][Nle]NS-NH2; staple 16-20), the “MIC B. cereus” value against B. cereus is 3.1 µg/mL. For the same compound, the “% Hemolysis at 25 μg/ml” value with human red blood cells is listed as 10.1%. The “MIC S. aureus” value with S. aureus was found to be 12.5 µg/mL. Besides, in the data set on E. coli, the “MIC E. coli” value turned out to be 1.6 µg/mL. Further, the “MIC P. aeruginosa” value with P. aeruginosa was 3.1 µg/mL.

On to `CCCC[C@H](NC(=O)[C@@H](NC(=O)[C@H](CCC(=O)O)NC(=O)CNC(=O)[C@@H](NC(=O)[C@H](Cc1ccccc1)NC(=O)[C@H](C)NC(=O)[C@]1(C)CCCC=CCCCCCC[C@@](C)(NC(=O)[C@H](CC(C)C)NC(=O)[C@H](Cc2ccccc2)NC(=O)[C@H](CCCCN)NC(=O)CNC(=O)[C@@H](NC(=O)CN)[C@@H](C)CC)C(=O)N[C@@H](CO)C(=O)N[C@@H](C)C(=O)N[C@@H](CCCCN)C(=O)N[C@@H](CCCCN)C(=O)N[C@@H](Cc2ccccc2)C(=O)NCC(=O)N1)C(C)C)[C@@H](C)CC)C(=O)N[C@@H](CC(N)=O)C(=O)N[C@@H](CO)C(N)=O` [Mag(i + 7)6] (H-GIGKFL[R8]SAKKFG[S5]AFVGEI[Nle]NS-NH2; staple 7-14 (inferred); N-terminus and C-terminus assumed), for which the “MIC B. cereus” value in the data set on B. cereus came to 6.2 µg/mL. Further, the “% Hemolysis at 25 μg/ml” value with human red blood cells is recorded as 47.1%. For the same compound, the “MIC S. aureus” value in the data set with S. aureus is 6.2 µg/mL. Also, the “MIC E. coli” value against E. coli was 3.1 µg/mL. Moreover, the “MIC P. aeruginosa” value in the data set with P. aeruginosa was 25 µg/mL.

Turning to `CCCC[C@H](NC(=O)[C@]1(C)CCCC=CCCC[C@](C)(NC(=O)[C@H](C)NC(=O)[C@H](CCCCN)NC(=O)[C@@H](C)NC(=O)[C@H](Cc2ccccc2)NC(=O)[C@H](CCCCN)NC(=O)[C@H](CCCCN)NC(=O)[C@H](C)NC(=O)[C@H](CO)NC(=O)[C@H](Cc2c[nH]cn2)NC(=O)[C@H](CC(C)C)NC(=O)[C@H](Cc2ccccc2)NC(=O)[C@H](CCCCN)NC(=O)CNC(=O)[C@@H](NC(=O)CN)[C@@H](C)CC)C(=O)N[C@@H](C(C)C)C(=O)NCC(=O)N[C@@H](CCC(=O)O)C(=O)N1)C(=O)N[C@@H](CC(N)=O)C(=O)N[C@@H](CO)C(N)=O` [Mag(i + 4)15(G13a)] (H-GIGKFLHSAKKF[dA]KA[S5]VGE[S5][Nle]NS-NH2; staple 16-20), the “MIC B. cereus” value against B. cereus was 6.2 µg/mL. Further, the “% Hemolysis at 25 μg/ml” value in the data set on human red blood cells was 4.3%. For the same compound, the “MIC S. aureus” value against S. aureus came to 6.2 µg/mL. Besides, the “MIC E. coli” value in the data set with E. coli came to 1.6 µg/mL. Also, the “MIC P. aeruginosa” value against P. aeruginosa worked out at 3.1 µg/mL.

In the case of `CCCC[C@H](NC(=O)[C@]1(C)CCCC=CCCC[C@](C)(NC(=O)[C@H](C)NC(=O)[C@H](CCCCN)NC(=O)[C@@H]2C[C@@H](O)CN2C(=O)[C@H](Cc2ccccc2)NC(=O)[C@H](CCCCN)NC(=O)[C@H](CCCCN)NC(=O)[C@H](C)NC(=O)[C@H](CO)NC(=O)[C@H](Cc2c[nH]cn2)NC(=O)[C@H](CC(C)C)NC(=O)[C@H](Cc2ccccc2)NC(=O)[C@H](CCCCN)NC(=O)CNC(=O)[C@@H](NC(=O)CN)[C@@H](C)CC)C(=O)N[C@@H](C(C)C)C(=O)NCC(=O)N[C@@H](CCC(=O)O)C(=O)N1)C(=O)N[C@@H](CC(N)=O)C(=O)N[C@@H](CO)C(N)=O` [Mag(i + 4)15(G13&), GIGKFLHSAKKF&KAXVGEXBNS] (H-GIGKFLHSAKKF[Hyp]KA[S5]VGE[S5][Nle]NS-NH2; staple 16-20), the “MIC B. cereus” value with B. cereus is more than 50 µg/mL. In the data set with human red blood cells, the “% Hemolysis at 25 μg/ml” value came out at 1.3%. Moreover, in the data set on S. aureus, the “MIC S. aureus” value was more than 50 µg/mL. Further, the “MIC E. coli” value in the data set with E. coli was found to be 12.5 µg/mL. Moreover, in the data set on P. aeruginosa, the “MIC P. aeruginosa” value turned out to be 50 µg/mL.

For the compound `CCCC[C@@H]1NC(=O)[C@H]([C@@H](C)CC)NC(=O)[C@H](CCC(=O)O)NC(=O)CNC(=O)[C@H](C(C)C)NC(=O)[C@H](Cc2ccccc2)NC(=O)[C@](C)(NC(=O)[C@H](CCCCN)NC(=O)CNC(=O)[C@H](Cc2ccccc2)NC(=O)[C@H](CCCCN)NC(=O)[C@H](CCCCN)NC(=O)[C@H](C)NC(=O)[C@H](CO)NC(=O)[C@H](Cc2c[nH]cn2)NC(=O)[C@H](CC(C)C)NC(=O)[C@H](Cc2ccccc2)NC(=O)[C@H](CCCCN)NC(=O)CNC(=O)[C@@H](NC(=O)CN)[C@@H](C)CC)CCCCCCC=CCCC[C@@](C)(C(=O)N[C@@H](CO)C(N)=O)NC1=O` [Mag(i + 7)14] (H-GIGKFLHSAKKFGK[R8]FVGEI[Nle][S5]S-NH2; staple 15-22 (inferred); N-terminus and C-terminus assumed), in the data set on B. cereus, the “MIC B. cereus” value came to 1.6 µg/mL. For the same compound, the “% Hemolysis at 25 μg/ml” value in the data set with human red blood cells was 68.1%. In the data set on S. aureus, the “MIC S. aureus” value is 1.6 µg/mL. In addition, the “MIC E. coli” value against E. coli is 1.6 µg/mL. Further, the “MIC P. aeruginosa” value in the data set with P. aeruginosa worked out at 6.2 µg/mL.

Turning to `CCCC[C@H](NC(=O)[C@]1(C)CCCC=CCCC[C@](C)(NC(=O)[C@H](C)NC(=O)[C@H](CCCCN)NC(=O)CNC(=O)[C@H](Cc2ccccc2)NC(=O)[C@H](CCCCN)NC(=O)[C@H](CCCCN)NC(=O)[C@H](CCCCN)NC(=O)[C@H](CO)NC(=O)[C@H](Cc2c[nH]cn2)NC(=O)[C@]2(C)CCCC=CCCC[C@](C)(NC(=O)CN)C(=O)NCC(=O)N[C@@H](CCCCN)C(=O)N[C@@H](Cc3ccccc3)C(=O)N2)C(=O)N[C@@H](C(C)C)C(=O)NCC(=O)N[C@@H](CCC(=O)O)C(=O)N1)C(=O)N[C@@H](CC(N)=O)C(=O)N[C@@H](CO)C(N)=O` [Mag(i + 4)1, 15(A9K), GXGKFXHSKKKFGKAXVGEXBNS] (H-G[S5]GKF[S5]HSKKKFGKA[S5]VGE[S5][Nle]NS-NH2; staple 2-6, 16-20), the “MIC B. cereus” value in the data set with B. cereus came out at 25 µg/mL. Besides, in the data set with human red blood cells, the “hemolytic activity at concentrations 8-fold higher than its MIC” value is on record as “little hemolytic activity” and the “% Hemolysis at 25 μg/ml” value came out at 2.4%. In addition, the “MIC S. aureus” value against S. aureus was 50 µg/mL. Besides, the “MIC E. coli” value with E. coli was determined as 1.6 µg/mL. Moreover, in the data set with P. aeruginosa, the “MIC P. aeruginosa” value was determined as 3.1 µg/mL.

For the compound `CCCC[C@H](NC(=O)[C@]1(C)CCCC=CCCC[C@](C)(NC(=O)[C@H](C)NC(=O)[C@H](CCCCN)NC(=O)CNC(=O)[C@H](Cc2ccccc2)NC(=O)[C@H](CCCCN)NC(=O)[C@H](CCC(=O)O)NC(=O)[C@H](C)NC(=O)[C@H](CO)NC(=O)[C@H](Cc2c[nH]cn2)NC(=O)[C@H](CC(C)C)NC(=O)[C@H](Cc2ccccc2)NC(=O)[C@H](CCCCN)NC(=O)CNC(=O)[C@@H](NC(=O)CN)[C@@H](C)CC)C(=O)N[C@@H](C(C)C)C(=O)NCC(=O)N[C@@H](CCC(=O)O)C(=O)N1)C(=O)N[C@@H](CC(N)=O)C(=O)N[C@@H](CO)C(N)=O` [Mag(i + 4)15(K10E), GIGKFLHSAEKFGKAXVGEXBNS] (H-GIGKFLHSAEKFGKA[S5]VGE[S5][Nle]NS-NH2; staple 16-20), the “MIC B. cereus” value in the data set with B. cereus is more than 50 µg/mL. Further, the “% Hemolysis at 25 μg/ml” value in the data set on human red blood cells was 2.4%. In addition, in the data set on S. aureus, the “MIC S. aureus” value was more than 50 µg/mL. Further, in the data set on E. coli, the “MIC E. coli” value turned out to be 6.2 µg/mL. For the same compound, in the data set on P. aeruginosa, the “MIC P. aeruginosa” value is more than 50 µg/mL.

Regarding `CCCC[C@H](NC(=O)[C@]1(C)CCCC=CCCC[C@](C)(NC(=O)[C@H](C)NC(=O)[C@H](CCCCN)NC(=O)[C@H](CCC(=O)O)NC(=O)[C@H](Cc2ccccc2)NC(=O)[C@H](CCCCN)NC(=O)[C@H](CCCCN)NC(=O)[C@H](C)NC(=O)[C@H](CO)NC(=O)[C@H](Cc2c[nH]cn2)NC(=O)[C@H](CC(C)C)NC(=O)[C@H](Cc2ccccc2)NC(=O)[C@H](CCCCN)NC(=O)CNC(=O)[C@@H](NC(=O)CN)[C@@H](C)CC)C(=O)N[C@@H](C(C)C)C(=O)NCC(=O)N[C@@H](CCC(=O)O)C(=O)N1)C(=O)N[C@@H](CC(N)=O)C(=O)N[C@@H](CO)C(N)=O` [Mag(i + 4)15(G13E), GIGKFLHSAKKFEKAXVGEXBNS] (H-GIGKFLHSAKKFEKA[S5]VGE[S5][Nle]NS-NH2; staple 16-20), in the data set with B. cereus, the “MIC B. cereus” value was more than 50 µg/mL. In addition, the “% Hemolysis at 25 μg/ml” value in the data set on human red blood cells is 2.2%. In the data set with S. aureus, the “MIC S. aureus” value was more than 50 µg/mL. Also, the “MIC E. coli” value against E. coli stood at 25 µg/mL. Besides, the “MIC P. aeruginosa” value with P. aeruginosa is more than 50 µg/mL.

The record behind these values is patent US20200231638A1, “STABILIZED ANTI-MICROBIAL PEPTIDES” (priority 2015, published 2020).
